From ChEMBL document CHEMBL2385022, “Therapeutic and pharmacokinetic characterizations of an anti-amyloidogenic bis-styrylbenzene derivative for Alzheimer's disease treatment” (Bioorg Med Chem Lett, 2013)
Calls of active or inactive are those of the source. No cut-off for these calls is given here.

How the values were obtained:
Rattus norvegicus [1] = test: Acute toxicity in Sprague-Dawley rat assessed as mortality at 500 to 2000 mg/kg, po after 14 days; type: organism-based; parameters: dose 500-2000 mg/kg, route oral; details: in vivo, 336 h
[2] = Half life in ICR mouse brain at 10 mg/kg, iv; type: ADME, organism-based; parameters: dose 10 mg/kg, route intravenous
[3] = Cmax in ICR mouse plasma at 10 mg/kg, iv; type: ADME, organism-based; parameters: dose 10 mg/kg, route intravenous
[4] = Cmax in ICR mouse plasma at 20 mg/kg, po; type: ADME, organism-based; parameters: dose 20 mg/kg, route oral
Rattus norvegicus [5] = test: Toxicity in Sprague-Dawley rat assessed as change in body weight at 2000 mg/kg, po after 5 days (reference value: 148.4 +/- 3.2 g); type: organism-based; parameters: dose 2000 mg/kg, route oral; details: in vivo, 120 h
Rattus norvegicus [6] = test: Toxicity in Sprague-Dawley rat assessed as change in body weight at 1000 mg/kg, po after 5 days (reference value: 148.4 +/- 3.2 g); type: organism-based; parameters: dose 1000 mg/kg, route oral; details: in vivo, 120 h
[7] = Half life in ICR mouse plasma at 10 mg/kg, iv; type: ADME, organism-based; parameters: dose 10 mg/kg, route intravenous
[8] = Tmax in ICR mouse brain at 10 mg/kg, iv; type: ADME, organism-based; parameters: dose 10 mg/kg, route intravenous
[9] = Cmax in ICR mouse brain at 20 mg/kg, po; type: ADME, organism-based; parameters: dose 20 mg/kg, route oral
Mus musculus [10] = test: Cognitive enhancing effect in amyloid beta (1-42) infused ICR mouse assessed as increase in alternation behavior at 30 mg/kg/day, ip administered 1 day prior to amyloid beta (1-42) infusion and continued for 6 days measured on day 6 by Y-maze test (reference value: 64.1%); type: functional; details: route intraperitoneal
[11] = Tmax in ICR mouse plasma at 10 mg/kg, iv; type: ADME, organism-based; parameters: dose 10 mg/kg, route intravenous
Rattus norvegicus [12] = test: Toxicity in Sprague-Dawley rat assessed as change in body weight at 500 mg/kg, po after 1 day (reference value: 130.6 +/- 4.6 g); type: organism-based; parameters: dose 500 mg/kg, route oral; details: in vivo, 24 h
[13] = AUC (0 to 24 hrs) in ICR mouse brain at 20 mg/kg, po; type: ADME, organism-based; parameters: time < 24 hr, dose 20 mg/kg, route oral
[14] = Acute toxicity in po dosed Sprague-Dawley rat assessed as mortality after 14 days; type: organism-based; details: in vivo
Rattus norvegicus [15] = test: Toxicity in Sprague-Dawley rat assessed as change in body weight at 1000 mg/kg, po after 14 days (reference value: 199.1 +/- 4.8 g); type: organism-based; parameters: dose 1000 mg/kg, route oral; details: in vivo, 336 h
[16] = Half life in ICR mouse brain at 20 mg/kg, po; type: ADME, organism-based; parameters: dose 20 mg/kg, route oral
[17] = Oral bioavailability in ICR mouse at 20 mg/kg; type: ADME, organism-based; details: in vivo
[18] = AUC (0 to 24 hrs) in ICR mouse plasma at 10 mg/kg, iv; type: ADME, organism-based; parameters: time < 24 hr, dose 10 mg/kg, route intravenous
Rattus norvegicus [19] = test: Toxicity in Sprague-Dawley rat assessed as change in body weight at 2000 mg/kg, po after 10 days (reference value: 175.9 +/- 5.1 g); type: organism-based; parameters: dose 2000 mg/kg, route oral; details: in vivo, 240 h
Rattus norvegicus [20] = test: Toxicity in Sprague-Dawley rat assessed as change in body weight at 1000 mg/kg, po after 1 day (reference value: 130.6 +/- 4.6 g); type: organism-based; parameters: dose 1000 mg/kg, route oral; details: in vivo, 24 h
[21] = Cmax in ICR mouse brain at 10 mg/kg, iv; type: ADME, organism-based; parameters: dose 10 mg/kg, route intravenous
[22] = Tmax in ICR mouse brain at 20 mg/kg, po; type: ADME, organism-based; parameters: dose 20 mg/kg, route oral
Rattus norvegicus [23] = test: Toxicity in Sprague-Dawley rat assessed as change in body weight at 500 mg/kg, po after 14 days (reference value: 199.1 +/- 4.8 g); type: organism-based; parameters: dose 500 mg/kg, route oral; details: in vivo, 336 h
Mus musculus [24] = test: Ratio of drug level in brain to plasma in ICR mouse at 10 mg/kg, iv […]; details: in vivo
[25] = Apparent permeability from apical to basolateral side in mouse bEND.3 /rat C6 co-culture cell model after 1 hr by Transwell assay; type: ADME
Rattus norvegicus [26] = test: Toxicity in Sprague-Dawley rat assessed as change in body weight at 1000 mg/kg, po after 10 days (reference value: 175.9 +/- 5.1 g); type: organism-based; parameters: dose 1000 mg/kg, route oral; details: in vivo, 240 h
hERG (KCNH2) = hERG (KCNH2) (Homo sapiens, UniProt Q12809); test: Inhibition of human ERG in HEK293 cells at 10 uM by patch clamp assay relative to control; type: cell-based; details: HEK293 cells expressing human ERG
Chain of hERG (KCNH2) (Q12809 whole entry): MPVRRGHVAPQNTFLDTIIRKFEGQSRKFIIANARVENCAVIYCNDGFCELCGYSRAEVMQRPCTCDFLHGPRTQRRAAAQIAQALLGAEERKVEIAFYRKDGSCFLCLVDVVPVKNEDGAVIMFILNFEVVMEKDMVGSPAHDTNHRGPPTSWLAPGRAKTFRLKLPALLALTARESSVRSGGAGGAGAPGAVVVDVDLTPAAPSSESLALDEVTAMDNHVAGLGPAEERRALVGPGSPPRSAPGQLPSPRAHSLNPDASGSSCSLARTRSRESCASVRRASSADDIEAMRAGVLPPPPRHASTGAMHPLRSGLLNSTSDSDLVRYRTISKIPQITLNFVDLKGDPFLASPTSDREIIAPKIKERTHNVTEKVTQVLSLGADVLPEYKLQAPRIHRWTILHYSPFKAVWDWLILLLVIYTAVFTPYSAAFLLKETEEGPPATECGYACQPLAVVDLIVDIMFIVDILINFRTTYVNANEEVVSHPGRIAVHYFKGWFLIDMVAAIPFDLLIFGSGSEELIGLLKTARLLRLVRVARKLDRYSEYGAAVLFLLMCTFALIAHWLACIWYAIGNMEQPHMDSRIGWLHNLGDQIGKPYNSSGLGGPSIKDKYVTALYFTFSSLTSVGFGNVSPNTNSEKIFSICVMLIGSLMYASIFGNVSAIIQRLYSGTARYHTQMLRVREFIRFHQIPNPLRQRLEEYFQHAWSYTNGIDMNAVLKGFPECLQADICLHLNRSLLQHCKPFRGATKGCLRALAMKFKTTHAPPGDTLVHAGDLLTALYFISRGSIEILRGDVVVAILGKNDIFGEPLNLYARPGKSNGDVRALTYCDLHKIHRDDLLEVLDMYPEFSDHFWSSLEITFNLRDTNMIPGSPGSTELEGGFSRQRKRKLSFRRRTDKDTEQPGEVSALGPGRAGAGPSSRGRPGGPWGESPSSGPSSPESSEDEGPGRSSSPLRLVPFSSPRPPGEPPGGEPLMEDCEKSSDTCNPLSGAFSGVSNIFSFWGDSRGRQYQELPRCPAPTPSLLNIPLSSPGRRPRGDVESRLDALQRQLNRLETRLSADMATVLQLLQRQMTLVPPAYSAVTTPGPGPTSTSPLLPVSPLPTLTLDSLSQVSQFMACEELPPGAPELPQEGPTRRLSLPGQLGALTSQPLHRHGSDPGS

Rattus norvegicus [27] = test: Toxicity in Sprague-Dawley rat assessed as change in body weight at 2000 mg/kg, po after 1 day (reference value: 130.6 +/- 4.6 g); type: organism-based; parameters: dose 2000 mg/kg, route oral; details: in vivo, 24 h
Rattus norvegicus [28] = test: Toxicity in Sprague-Dawley rat assessed as change in body weight at 500 mg/kg, po after 10 days (reference value: 175.9 +/- 5.1 g); type: organism-based; parameters: dose 500 mg/kg, route oral; details: in vivo, 240 h
[29] = AUC (0 to 24 hrs) in ICR mouse plasma at 20 mg/kg, po; type: ADME, organism-based; parameters: time < 24 hr, dose 20 mg/kg, route oral
Mus musculus [30] = test: Ratio of drug level in brain to plasma in ICR mouse at 20 mg/kg, po […]; details: in vivo
[31] = AUC (0 to 24 hrs) in ICR mouse brain at 10 mg/kg, iv; type: ADME, organism-based; parameters: time < 24 hr, dose 10 mg/kg, route intravenous
[32] = Half life in ICR mouse plasma at 20 mg/kg, po; type: ADME, organism-based; parameters: dose 20 mg/kg, route oral
Rattus norvegicus [33] = test: Toxicity in Sprague-Dawley rat assessed as change in body weight at 500 mg/kg, po after 5 days (reference value: 148.4 +/- 3.2 g); type: organism-based; parameters: dose 500 mg/kg, route oral; details: in vivo, 120 h
[34] = target: Amyloid-beta precursor protein (Homo sapiens) (UniProt P05067); test: Inhibition of amyloid beta (1-42) fibril aggregation (unknown origin) at 100 uM after 20 hrs by transmission electron microscopic analysis
Chain of Amyloid-beta precursor protein (Homo sapiens) (P05067 whole entry): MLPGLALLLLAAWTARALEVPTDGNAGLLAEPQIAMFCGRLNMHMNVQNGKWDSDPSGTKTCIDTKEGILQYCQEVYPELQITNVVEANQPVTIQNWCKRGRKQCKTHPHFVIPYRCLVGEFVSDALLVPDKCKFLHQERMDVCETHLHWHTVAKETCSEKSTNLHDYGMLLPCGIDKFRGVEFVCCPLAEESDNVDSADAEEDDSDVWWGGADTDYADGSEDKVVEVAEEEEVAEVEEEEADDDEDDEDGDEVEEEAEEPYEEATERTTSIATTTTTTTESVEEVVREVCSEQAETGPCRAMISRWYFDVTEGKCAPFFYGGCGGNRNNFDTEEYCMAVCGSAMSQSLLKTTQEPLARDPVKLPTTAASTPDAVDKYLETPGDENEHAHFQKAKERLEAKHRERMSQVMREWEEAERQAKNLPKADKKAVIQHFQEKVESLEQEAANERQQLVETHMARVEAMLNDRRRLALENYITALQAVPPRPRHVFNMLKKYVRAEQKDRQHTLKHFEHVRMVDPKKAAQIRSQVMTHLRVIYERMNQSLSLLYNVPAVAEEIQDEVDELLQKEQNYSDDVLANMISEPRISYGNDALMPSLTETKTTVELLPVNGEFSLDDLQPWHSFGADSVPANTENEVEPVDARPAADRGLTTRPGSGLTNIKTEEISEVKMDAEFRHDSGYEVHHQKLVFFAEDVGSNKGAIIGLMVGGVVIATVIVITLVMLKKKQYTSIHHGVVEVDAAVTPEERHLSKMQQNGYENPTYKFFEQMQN

Rattus norvegicus [35] = test: Toxicity in Sprague-Dawley rat assessed as change in body weight at 2000 mg/kg, po after 14 days (reference value: 199.1 +/- 4.8 g); type: organism-based; parameters: dose 2000 mg/kg, route oral; details: in vivo, 336 h
[36] = Tmax in ICR mouse plasma at 20 mg/kg, po; type: ADME, organism-based; parameters: dose 20 mg/kg, route oral

Structure (SMILES) | Activity (Rattus norvegicus [1]) | Activity (Rattus norvegicus [5]) | Activity (Rattus norvegicus [6]) | Activity (Mus musculus [10]) | Activity (Rattus norvegicus [12]) | Activity (Rattus norvegicus [15]) | Activity (Rattus norvegicus [19]) | Activity (Rattus norvegicus [20]) | Activity (Rattus norvegicus [23]) | Papp A→B at 1 h [25] | Activity (Rattus norvegicus [26]) | inhibition at 10 µM (hERG (KCNH2)) | Activity (Rattus norvegicus [27]) | Activity (Rattus norvegicus [28]) | Activity (Rattus norvegicus [33]) | inhibition [34] | Activity (Rattus norvegicus [35]) | other results
CNc1ccc(/C=C/c2cccc(/C=C/c3ccc(NC)c(OC)c3)c2)cc1OC | Non-toxic | – | – | – | – | – | – | – | – | – | – | – | – | – | – | – | – | –
COc1cc(/C=C/c2cccc(/C=C/c3ccc(N(C)C)c(OC)c3)c2)ccc1N(C)C | – | 128.3 g | 138.9 g | 70% | 131.5 g | 182.2 g | 157.8 g | 132 g | 183.9 g | 670 ×10⁻⁶ cm/s | 164.2 g | 14% | 132.4 g | 164.1 g | 142.6 g | Active | 174.6 g | half-life [2]: 6.04 h; Cmax [3]: 13100 ng/mL; Cmax [4]: 3490 ng/mL; half-life [7]: 7.3 h; Tmax [8]: 0.4 h; Cmax [9]: 395 ng/mL; Tmax [11]: 4.8 min; AUC(0-t) at 24 h [13]: 4530 ng·h/mL; LD50 at 336 h [14]: > 2000 mg/kg; half-life [16]: 14.5 h; bioavailability [17]: 46.2%; AUC(0-t) at 24 h [18]: 31600 ng·h/mL; Cmax [21]: 1410 ng/mL; Tmax [22]: 4.7 h; Drug uptake (Mus musculus [24]): 26%; AUC(0-t) at 24 h [29]: 29200 ng·h/mL; Drug uptake (Mus musculus [30]): 15%; AUC(0-t) at 24 h [31]: 8100 ng·h/mL; half-life [32]: 9.4 h; Tmax [36]: 1 h
COC(=O)c1ccccc1-c1c2ccc(=N)cc-2oc2cc(N)ccc12.Cl [RHODAMINE123] | – | – | – | – | – | – | – | – | – | 32 ×10⁻⁶ cm/s | – | – | – | – | – | – | – | –
COc1cc(/C=C/C(=O)CC(=O)/C=C/c2ccc(O)c(OC)c2)ccc1O | – | – | – | – | – | – | – | – | – | – | – | – | – | – | – | Active | – | –
NCCCS(=O)(=O)O [TRAMIPROSATE] | Non-toxic | 147.2 g | 149.6 g | 67.3% | 130.7 g | 195.4 g | 171.5 g | 131.1 g | 188 g | – | 174.7 g | 18% | 131.4 g | 167.2 g | 145.3 g | – | 194.3 g | –
